Measurements reported in US20240140947A1, “COMPOUND FOR THE TREATMENT OF CANCER” (priority 2022, published 2024).
pIC50, pKi: −log10 of the molar value.

Assays:
CDK4/Cyclin D1 = molecular target: T1, CDK4/Cyclin D1 (Homo sapiens, UniProt P11802); assay: CDK4/Cyclin D1 mobility shift assay; format: biochemical; details: geometric mean, 3.5 mM ATP
T1 construct: 2007 E1/2008+PO4
Protocol: (§1) The mobility shift assay electrophoretically separates the fluorescently labeled peptides (substrate and phosphorylated product) following the kinase reaction. Both substrate and product are measured and the ratio of these values is used to generate % Conversion of substrate to product by the LabChip EZ Reader.
K, determinations were made from a plot of the fractional velocity as a function of inhibitor concentration fit to the Morrison equation with the enzyme concentration as a variable.

[1] = Human blood-to-plasma partition ratio (BPR); format: in vitro ADME; design: dose or concentration left out as unconfirmed; details: fresh whole blood, 37° C.
Protocol: Compound 1 has been evaluated according to methods well known in the art, for its ability to partition between human plasma and blood. Based on the observed partitioning and plasma protein binding, the blood binding was estimated based on human blood unbound fraction (fub)=human plasma unbound fraction (fup)/human blood-to-plasma partition ratio (BPR). […] At the end of the incubations, blood and plasma samples were matrix-matched and analyzed by LC-MS/MS. BPR was calculated by dividing the blood and plasma measure peak areas.

[2] = test system: palbociclib resistant (PalboR) derivatives of MCF7, T47D, and HCC1428; assay: Cell proliferation assay, palbociclib resistant derivatives (range over lines); format: cell-based; details: Homo sapiens, read-out: anti-proliferation IC50 values, range over cell lines
Protocol: (§2) OVCAR3, MCF7, T47D, HCC1428, NCIH2087, NCIH358 or A549cells were seeded 1-3000 cells/well in 96-well plates in growth media containing 10% FBS and cultured overnight at 37° C. 5% CO2. The following day, compounds were serially diluted from a 10 mM top dose for an 11-point 3-fold dilution curve in DMSO. Compound 1 and PF-06873600 were intermediately diluted 1:200 into growth media prior to diluting 1:5 on cells for final concentration 10 μM to 0.1 nM in 0.1% DMSO on cells. Cells were incubated at 37° C. 5% CO2 for 7 days. CYQUANT Direct Cell Proliferation Assay (Molecular Probes, Eugene, OR) was then performed following manufacturer recommendations to determine the relative viable cell numbers on the Perkin Elmer Envision 2104 Multi Label Reader at 508 nm excitation and 527 nm emission wavelengths. IC50 values were calculated by concentration-response curve fitting utilizing a four-parameter analytical method using GraphPad Prism software.
(§3) The effect of Compound 1 on cell proliferation was assessed in multiple ER+ breast cancer cell lines, including parental and palbociclib resistant cell lines.
(§4) Similar results were shown with NCIH2087, NCIH358, and A549 NSCLC cell lines ([…].4).

[3] = test system: MCF7, T47D, and HCC1428 parental ER+ breast cancer cell lines; assay: Cell proliferation assay, parental ER+ breast cancer cell lines (range over lines); format: cell-based; details: Homo sapiens, read-out: anti-proliferation IC50 values, range over cell lines
Protocol: as §2, §3, §4

CDK2/Cyclin E1 = molecular target: T2, CDK2/Cyclin E1 (Homo sapiens, UniProt P24941); assay: CDK2/Cyclin E1 mobility shift assay; format: biochemical; details: geometric mean, 150 μM ATP
T2 construct: Wild-type full length CDK2/wild-type full length Cyclin E1 enzyme complex was produced in-house
Protocol: (CPC Scientific, Sunnyvale, CA). The mobility shift assay electrophoretically separates the fluorescently labeled peptides (substrate and phosphorylated product) following the kinase reaction. Both substrate and product are measured, and the ratio of these values is used to generate % conversion of substrate to product by the LabChip EZ Reader. […] The assay was initiated with the addition of ATP, following a fifteen minutes pre-incubation of enzyme and inhibitor at room temperature in the reaction mixture. The reaction was stopped after 45 minutes at room temperature by the addition of 50 μL of 80 mM EDTA, pH 7.5. The Ki value was determined from the fit of the data to the Morrison tight-binding competitive inhibition equation with the enzyme concentration as a variable.

[4] = Preliminary assessment of metabolism (hepatocytes, human liver microsomes, plasma after oral dosing); format: in vitro ADME, rat, rabbit; details: hepatocytes of six species, plasma from monkey, dog and mouse
Protocol: A preliminary assessment of the metabolism of Compound 1 was conducted using mouse, rat, rabbit, dog, monkey and human hepatocytes; human liver microsomes; plasma from monkey, dog and mouse studies following oral dosing. The primary metabolic pathway of Compound 1 was oxidation.

CDK6/Cyclin D3 = molecular target: T3, CDK6/Cyclin D3 (Homo sapiens, UniProt Q00534); assay: CDK6/Cyclin D3 mobility shift assay; format: biochemical; details: geometric mean, 3.5 mM ATP
T3 construct: LJIC-2009G1/2010+PO4
T3 sequence (Q00534 whole entry): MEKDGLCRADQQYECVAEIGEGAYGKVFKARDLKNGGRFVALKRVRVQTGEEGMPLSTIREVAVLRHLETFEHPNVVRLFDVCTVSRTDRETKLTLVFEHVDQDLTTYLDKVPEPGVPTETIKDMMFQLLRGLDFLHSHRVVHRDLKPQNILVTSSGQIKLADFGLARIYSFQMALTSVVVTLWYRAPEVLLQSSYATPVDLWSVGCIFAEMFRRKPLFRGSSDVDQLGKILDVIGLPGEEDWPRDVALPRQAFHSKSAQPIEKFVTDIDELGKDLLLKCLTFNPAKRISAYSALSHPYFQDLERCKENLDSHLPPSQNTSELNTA
T3 sequence (P30281 whole entry partner): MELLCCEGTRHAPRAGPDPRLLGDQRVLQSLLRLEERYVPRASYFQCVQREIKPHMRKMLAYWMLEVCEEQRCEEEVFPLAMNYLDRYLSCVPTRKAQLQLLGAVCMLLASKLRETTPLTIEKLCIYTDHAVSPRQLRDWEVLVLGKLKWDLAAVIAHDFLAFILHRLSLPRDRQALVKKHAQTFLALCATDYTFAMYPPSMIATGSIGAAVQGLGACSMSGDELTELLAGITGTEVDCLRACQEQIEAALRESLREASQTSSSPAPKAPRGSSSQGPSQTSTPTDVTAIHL
Protocol: as §1, with “measured,” for “measured”, “conversion” for “Conversion”
The reaction was stopped after 95 minutes by the addition of 50 μL of 30 mM EDTA. Ki determinations were made from a plot of the fractional velocity as a function of inhibitor concentration fit to the Morrison equation with the enzyme concentration as a variable.
For CDK4 and CDK6 mobility shift assays, see also Morrison, J. F. (1969) Kinetics of the reversible inhibition of enzyme-catalysed reactions by tight-binding inhibitors, Biochimica et biophysica acta 185, 269-286; and Murphy, D. J. (2004) Determination of accurate KI values for tight-binding enzyme inhibitors: an in silico study of experimental error and assay design, Analytical biochemistry 327, 61-67.

[5] = Rat i.v. pharmacokinetic study; format: in vivo
Protocol: Rat PK studies were done at Pfizer (Groton, CT) or BioDuro Pharmaceutical Product Development Inc. (Shanghai, PRC); Jugular vein-cannulated male Wistar-Hannover rats were purchased from Charles River Laboratories, Inc. (Wilmington, MA) or Vital River (Beijing, China) and were typically 7-10 weeks of age at the time of dosing. During the pharmacokinetic studies all animals were housed individually. Access to food and water was provided ad libitum. Compounds were administered i.v. via the tail vein (n=2 or 3), dosed as a 1 mg/ml solution using standard compatible excipients at 1 mL/kg for a resulting dose of […]. Serial blood samples were collected via the jugular vein cannula at predetermined timepoints after dosing. Animals were monitored for pain or distress throughout the study, with at least daily monitoring during normal husbandry prior to study start. At the completion of the study, animals were euthanized by overdose of inhaled anesthesia followed by exsanguination. […] Plasma samples from the animal PK studies were processed using protein precipitation with acetonitrile: methanol (1:1) containing internal standard verapamil followed by quantitation by LC-MS/MS against a standard curve prepared in blank plasma. Pharmacokinetic parameters were calculated using noncompartmental analysis (Watson v.7.5, Thermo Scientific).

Observed human half-life = format: in vivo

T1 sequence (P11802 whole entry): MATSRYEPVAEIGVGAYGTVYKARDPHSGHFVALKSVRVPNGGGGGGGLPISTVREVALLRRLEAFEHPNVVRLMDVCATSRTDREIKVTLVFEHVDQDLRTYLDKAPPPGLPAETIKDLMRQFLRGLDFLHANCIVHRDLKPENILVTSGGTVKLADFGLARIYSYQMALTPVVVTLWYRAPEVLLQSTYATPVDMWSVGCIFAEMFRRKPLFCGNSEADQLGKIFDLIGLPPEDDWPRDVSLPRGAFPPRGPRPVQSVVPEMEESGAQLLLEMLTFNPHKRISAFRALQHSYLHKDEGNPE
T1 sequence (P24385 whole entry partner): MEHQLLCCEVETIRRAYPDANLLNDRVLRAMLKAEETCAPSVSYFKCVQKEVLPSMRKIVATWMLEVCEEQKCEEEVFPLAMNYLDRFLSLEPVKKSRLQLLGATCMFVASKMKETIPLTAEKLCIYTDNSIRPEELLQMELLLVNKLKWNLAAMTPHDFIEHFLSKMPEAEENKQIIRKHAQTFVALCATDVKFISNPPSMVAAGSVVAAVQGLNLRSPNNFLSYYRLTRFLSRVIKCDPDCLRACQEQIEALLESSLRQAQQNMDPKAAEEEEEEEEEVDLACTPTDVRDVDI

Compound	pKi (CDK4/Cyclin D1)	blood plasma ratio at 1 h [1]	pIC50 [2]	pIC50 [3]	pKi (CDK2/Cyclin E1)	primary metabolic pathway [4]	pKi (CDK6/Cyclin D3)	Rat Vdss unbound: (Rat plasma Vdss/rat plasma fu) [5] [L/kg]	Vd ([5]; rat, plasma, iv, 2 mg/kg, male Wistar-Hannover rats, read-out: Rat Vdss) [L/kg]	observed human t1/2 (Observed human half-life) [h]	half-life (Observed human half-life; in vivo, read-out: observed human t1/2 (converted)) [min]
C[C@@]1(O)CCC[C@H]1n1c(=O)c(CC(F)F)cc2cnc(NC3CCN(S(N)(=O)=O)CC3)nc21 [Compound 1, 4-({6-(2,2-difluoroethyl)-8-[(1R,2R)-2-hydroxy-2-methylcyclopentyl]-7-oxo-7,8-dihydropyrido[2,3-d]pyrimidin-2-yl}amino)piperidine-1-sulfonamide]	9.10	79	7.18 to 7.43	7.75 to 7.84	10.10	oxidation	8.51	10.8	1.5		
C[C@@]1(O)CCC[C@H]1n1c(=O)c(C(F)F)cc2cnc(NC3CCN(S(C)(=O)=O)CC3)nc21 [Compound 2, reference compound]										~3	180
